Data published in the supplement of paper PMC11451515.

How the values were obtained:
Test in all cases: AUC of viability dose-response curve (% viability x log10 dose units); higher = less sensitive
Settings in all cases: 48 h
P12-Ichikawa = tested on: P12-Ichikawa
Outline: (§1)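 Area under the curve was integrated by trapezoidal rule from a log-logistic fit of normalised viability, with curves exceeding full viability scaled and quality-control failures removed. The fit had four parameters over log10 doses. Viability came from CellTiter-Glo One luminescence, normalised per plate to DMSO and cell-free wells, after leukemia cells adapted to each medium (500 or 1000 cells/well, 1536-well plates) were exposed to library compounds in DMSO for 48 h at 37°C. The 11 threefold doses ran from 47 μM to 0.79 nM.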

NOMO1 = tested on: NOMO1
Outline: as §1

SEM cells = tested on: SEM cells
Outline: as §1

[1] = RPMI 5 mM glucose + 10% dialyzed FBS

SMILES | AUC of viability dose-response curve (P12-Ichikawa; HPLM + 10% dialyzed FBS) | AUC of viability dose-response curve (P12-Ichikawa; RPMI 5 mM glucose + 10% FBS) | AUC of viability dose-response curve (P12-Ichikawa; [1]) | AUC of viability dose-response curve (NOMO1; HPLM + 10% dialyzed FBS) | AUC of viability dose-response curve (NOMO1; RPMI 5 mM glucose + 10% FBS) | AUC of viability dose-response curve (NOMO1; [1]) | AUC of viability dose-response curve (SEM cells; HPLM + 10% dialyzed FBS) | AUC of viability dose-response curve (SEM cells; RPMI 5 mM glucose + 10% FBS) | AUC of viability dose-response curve (SEM cells; [1])
Cc1c(N)nc([C@H](CC(N)=O)NC[C@@H](N)C(N)=O)nc1C(=O)N[C@H](C(=O)N[C@@H](C)[C@H](O)[C@@H](C)C(=O)N[C@@H](C(=O)NCCc1nc(-c2nc(C(=O)NCCC[S+](C)C)cs2)cs1)[C@@H](C)O)C(O[C@H]1O[C@H](CO)[C@H](O)[C@@H](O)[C@H]1O[C@H]1O[C@H](CO)[C@@H](O)[C@H](OC(N)=O)[C@@H]1O)c1c[nH]cn1 (stereo partly specified) | 411 | 378 | 424 | 394 | 416 | 434 | 415 | 382 | 384
COc1cc(NCc2ccc3nc(N)nc(N)c3c2C)cc(OC)c1OC | 346 | 383 | 350 | 347 | 397 | 380 | 345 | 370 | 336
CC(=O)OC[C@@H]1O[C@H]([C@H](OC(C)=O)[C@@H]1OC(C)=O)N2\C=C/C(=O)NC2=O | 461 | 444 | 457 | 429 | 440 | 443 | 448 | 462 | 456
O=C(c1cncc(Br)c1)N1CCC(N2CCCC2)CC1 | 463 | 463 | 459 | 438 | 450 | 450 | 469 | 464 | 463
Cc1ccc(C(=O)Nc2cccc(C(F)(F)F)c2)cc1Nc1nc(-c2cccnc2)nc2c1cnn2C | 421 | 393 | 416 | 392 | 396 | 409 | 362 | 411 | 407
CCC(C)CCCCC(=O)N[C@@H](CCN)C(=O)NC(C(=O)N[C@H](CCN)C(=O)N[C@@H]1CCNC(=O)C([C@@H](C)O)NC(=O)[C@@H](CCN)NC(=O)[C@@H](CCN)NC(=O)[C@@H](CC(C)C)NC(=O)[C@H](Cc2ccccc2)NC(=O)[C@H](CCN)NC1=O)[C@@H](C)O (stereo partly specified) | 461 | 457 | 445 | 457 | 451 | 470 | 429 | 471 | 434
O=C(O)c1ccc(O)c2ncc(N3CCOCC3)cc12 | 452 | 431 | 435 | 447 | 417 | 454 | 453 | 424 | 393
Nc1n[nH]c2nnc(-c3c(-c4ccccc4)nn4ccccc34)cc12 | 404 | 403 | 429 | 378 | 354 | 379 | 446 | 449 | 455
COC1=CC=C(C=C1)/C2=C(O)/C(=O)C3=C(O)C=C(O)C(=C3O2)CC=C(C)C | 467 | 473 | 468 | 464 | 454 | 464 | 457 | 434 | 467
COc1ccccc1[C@H](c1cccc2ccccc12)[C@@](C)(C#N)C(=O)N1CCC(c2cccc(C(F)(F)F)c2)CC1 | 450 | 425 | 432 | 431 | 458 | 427 | 435 | 456 | 434
Cc1ccc2nc(NCCN)c3ncc(C)n3c2c1 | 458 | 455 | 460 | 446 | 422 | 437 | 413 | 440 | 430
CCCCCCNC(=O)N1\C=C(F)/C(=O)NC1=O | 458 | 459 | 456 | 451 | 468 | 443 | 466 | 458 | 435
OC[C@H]1O[C@H](C[C@@H]1O)N2/C=C(C(=O)NC2=O)/C(F)(F)F | 317 | 375 | 371 | 356 | 449 | 391 | 317 | 407 | 350
CCCCCNC(=N)N/N=C/c1c[nH]c2ccc(OC)cc12 | 429 | 429 | 436 | 440 | 442 | 441 | 426 | 424 | 428
C[C@@H]1[C@H]\2[C@H](O)[C@H]3[C@H](N(C)C)\C(=C(C(N)=O)/C(=O)[C@@]3(O)\C(=C2C(=O)C4=C(O)C=CC=C14)O)O | 473 | 462 | 462 | 470 | 465 | 472 | 468 | 473 | 440
CC(C(C)N1CC(=O)NC(=O)C1)N1CC(=O)NC(=O)C1 (stereo unspecified) | 454 | 425 | 447 | 459 | 468 | 471 | 422 | 351 | 401
CN1CCc2c(c3ccccc3n2Cc2ccc(C(=O)NO)cc2)C1 | 401 | 370 | 377 | 373 | 358 | 397 | 348 | 364 | 310
CCOC(=O)c1c(C)n(C)c2ccc(O)cc12 | 456 | 436 | 443 | 468 | 455 | 461 | 447 | 462 | 463
CN1C(=O)c2sccc2N(C)c2nc(Nc3ccc([S+](N)(=O)[O-])cc3)ncc21 | 343 | 349 | 355 | 379 | 390 | 378 | 345 | 348 | 348
Cc1cc(Nc2ncc3c(n2)N(C)C(=O)N(c2cc(NC(=O)c4cccc(C(F)(F)F)c4)ccc2C)C3)n(C)n1 | 399 | 374 | 381 | 341 | 362 | 357 | 293 | 278 | 277
Nc1nc(F)nc2c1ncn2[C@@H]1O[C@H](COP(=O)(O)O)[C@@H](O)[C@@H]1O | 448 | 460 | 454 | 420 | 456 | 448 | 353 | 398 | 352
CC(C)(N)C(=O)N[C@H](COCc1ccccc1)C(=O)N1CCC2(CC1)CN([S+](C)(=O)[O-])c1ccccc12 | 445 | 440 | 438 | 402 | 460 | 446 | 448 | 437 | 419
Nc1ccc(C(=O)c2cc3c(ccc4ccccc43)[nH]2)cc1 | 348 | 359 | 359 | 412 | 425 | 417 | 374 | 373 | 361
CN(CCOc1ccc(CC2SC(=O)NC2=O)cc1)c1ccccn1 (stereo unspecified) | 467 | 465 | 462 | 442 | 474 | 443 | 469 | 433 | 466
COCCn1c2c([n+](Cc3cnccn3)c1C)C(=O)c1ccccc1C2=O | 251 | 247 | 244 | 194 | 232 | 223 | 161 | 209 | 189
CC1(C)CC\C2=C(/O1)C3=C(C=CC=C3)C(=O)C2=O | 449 | 447 | 450 | 449 | 446 | 451 | 437 | 436 | 401
NCCCC(N)(C(=O)O)C(F)F (stereo unspecified) | 462 | 448 | 449 | 454 | 443 | 461 | 446 | 460 | 461
CCCN[C@H]1CCc2nc(N)sc2C1 | 462 | 430 | 450 | 447 | 434 | 466 | 453 | 442 | 442
CN1C(=O)/C(=C(NC2=CC=C(I)C=C2F)\C3=C1\N=C/N(C[C@@H](O)CO)C3=O)F | 381 | 342 | 369 | 229 | 231 | 216 | 339 | 330 | 295
